Measured values taken from patent US6355799B1, “Substituted benzene compounds, process for their preparation, and herbicidal and defoliant compositions containing them” (ISK Americas Incorporated, priority 1997, dated 2002).

Experiments:
Assay type in all cases: in vivo
[1] = tested on: redroot pigweed (Amaranthus retroflexus, AMARE); test: Pre-emerge test, greenhouse herbicide activity screening; details: pre-emerge, 14 days after application
Outline: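 Compounds in acetone were track-sprayed at 15-1000 g ai/ha (187 l/ha) on sandy loam pots: pre-emerge one day after seeding, post-emerge at 2-3 leaf stage with 0.25% v/v non-ionic surfactant. Phytotoxicity was rated 14 days later on a 0 (no damage) to 100 (complete death) scale.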

[2] = tested on: barnyardgrass (Echinochloa crus-galli, ECHCG); test: as above; details: pre-emerge, 14 days after application
Outline: (§1)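 Compounds in acetone were track-sprayed at 187 l/ha, 15–1000 g ai/ha, onto sandy loam pots. Pre-emerge seeds were sown one day before spraying, with surface watering afterwards. Post-emerge plants were at the 2–3 leaf stage and sprayed with 0.25% v/v non-ionic surfactant. Injury was rated 0–100 at 14 days.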

[3] = tested on: green foxtail (Setaria viridis, SETVI); test: as above; details: pre-emerge, 14 days after application
Outline: as §1

[4] = tested on: ivyleaf morningglory (Ipomoea hederacea, IPOHE); test: as above; details: pre-emerge, 14 days after application
Outline: as §1

[5] = tested on: johnsongrass (Sorghum halepense, SORHA); test: as above; details: pre-emerge, 14 days after application, rating scale 0-100
Outline: as §1

[6] = tested on: lambsquarters (Chenopodium album, CHEAL); test: as above; details: pre-emerge, 14 days after application
Outline: as §1

[7] = tested on: large crabgrass (Digitaria sanguinalis, DIGSA); test: as above; details: pre-emerge, 14 days after application
Outline: as §1

[8] = tested on: sicklepod (Cassia obtusifolia, CASOB); test: as above; details: pre-emerge, 14 days after application
Outline: as §1

[9] = tested on: velvetleaf (Abutilon theophrasti, ABUTH); test: as above; details: pre-emerge, 14 days after application
Outline: as §1

[10] = tested on: field corn (Zea mays L., var. Dekalb 535, CORN); test: Pre-emerge test, crop safety; details: pre-emerge, 14 days after application, scale 0-100
Outline: (§2)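 Fourteen days after spraying, crop and weed injury was graded visually from 0, no effect, to 100, every plant dead. Test substances were dissolved in acetone and applied at 15–1000 g ai/ha with a flat-fan nozzle. Application was either pre-emergence, one day after sowing, or post-emergence at the 2–3 leaf stage.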

[11] = tested on: upland rice (Oryza sp., var. Tebonnet, RICE); test: Pre-emerge test, crop safety; details: pre-emerge, 14 days after application, scale 0-100
Outline: as §2

[12] = tested on: barnyardgrass (Echinochloa crus-galli, ECHCG); test: Post-emerge test, greenhouse herbicide activity screening; details: post-emerge, 14 days after application, rating scale 0-100
Excerpt: (§3) A standard greenhouse herbicide activity screening system was used to evaluate the herbicidal efficacy and crop safety of these test compounds. Seven broadleaf weed species including redroot pigweed (Amaranthus retroflexus, AMARE, velvetleaf (Abutilon theophrasti, ABUTH), sicklepod (Cassia obtusifolia, CASOB), ivyleaf morningglory (Ipomoea hederacea, IPOHE), lambsquarters (Chenopodium album, CHEAL), common ragweed (Ambrosia artemisizfolia L., AMBEL), and cocklebur (Xanthium strumarium, XANST) were used as test species. Four grass weed species including green foxtail (Setaria viridis, SETVI), barnyardgrass (Echinochloa crus-galli, ECHCG), johnsongrass (Sorghum halepense, SORHA), and large crabgrass (Digitaria sanguinalis, DIGSA) were also used. In addition, three crop species, field corn (Zea mays L., var. Dekalb 535, CORN), soybean (Glycine max L., var. Pella 86, SOY), and is upland rice (Oryza sp., var. Tebonnet, RICE) were included.
(§4) All plants were grown in 10 cm square plastic pots which were filled with a sandy loam soil mix. For pre-emerge tests, seeds were planted one day prior to application of the test compounds. For post-emerge tests, seeds were planted 8-21 days prior to the test to allow emergence and good foliage development prior to application of the test substances. At the time of the post-emerge application, plants of all species were usually at the 2-3 leaf stage of development.
(§5) All test compounds Were dissolved in acetone and applied to the test units in a volume of 187 l /ha. Test materials were applied at rates ranging from 15 g ai/ha to 1000 g ai/ha using a track sprayer equipped with a TJ8001E even flow flat fan spray nozzle. Plants were arranged on a shelf so that the top of the canopy (post-emerge) or top of the soil surface (pre-emerge) was 40-45 cm below the nozzle. Pressurized air was used to force the test solution through the nozzle as it was mechanically advanced (via electrically driven chain drive) over the top of all test plants/pots. This application simulates a typical commercial field herbicide application.
(§6) In the post-emerge test, a commercial non-ionic surfactant was also included (0.25% v/v) to enhance wetting of the leaf surfaces of target plants. Immediately after application, test units of the pre-emerge applications were watered at the soil surface to incorporate the test materials. Subsequently, these test units were bottom-watered. Post-emerge test units were always bottom-watered.
(§7) At 14 days after application of the test materials, phytotoxicity ratings were recorded. A rating scale of 0-100 was used as previously described in Research Methods in Weed Science, 2nd edition, B. Truelove, Ed., Southern Weed Science Society, Auburn University, Auburn, Ala. 1977. Briefly, “0” corresponds to no damage and “100” corresponds to complete death of all plants in the test unit. This scale was used both to determine efficacy against weed species and damage to crop species. Herbicide activity data for various compounds of this invention, which are shown by compound No. in Tables 1-8, are shown in Tables 11 and 12.

[13] = tested on: green foxtail (Setaria viridis, SETVI); test: as above; details: post-emerge, 14 days after application, rating scale 0-100
Excerpt: as §3, §4, §5, §6, §7

[14] = tested on: ivyleaf morningglory (Ipomoea hederacea, IPOHE); test: as above; details: post-emerge, 14 days after application, rating scale 0-100
Excerpt: as §3, §4, §5, §6, §7

[15] = tested on: lambsquarters (Chenopodium album, CHEAL); test: as above; details: post-emerge, 14 days after application, rating scale 0-100
Excerpt: as §3, §4, §5, §6, §7

[16] = tested on: large crabgrass (Digitaria sanguinalis, DIGSA); test: as above; details: post-emerge, 14 days after application, rating scale 0-100
Excerpt: as §3, §4, §5, §6, §7

[17] = tested on: redroot pigweed (Amaranthus retroflexus, AMARE); test: as above; details: post-emerge, 14 days after application, rating scale 0-100
Excerpt: as §3, §4, §5, §6, §7

[18] = tested on: sicklepod (Cassia obtusifolia, CASOB); test: as above; details: post-emerge, 14 days after application, rating scale 0-100
Excerpt: as §3, §4, §5, §6, §7

[19] = tested on: velvetleaf (Abutilon theophrasti, ABUTH); test: as above; details: post-emerge, 14 days after application, rating scale 0-100
Excerpt: as §3, §4, §5, §6, §7

[20] = tested on: field corn (Zea mays L., var. Dekalb 535, CORN); test: Post-emerge test, crop safety; details: post-emerge, 14 days after application, rating scale 0-100
Outline: as §1

[21] = tested on: upland rice (Oryza sp., var. Tebonnet, RICE); test: Post-emerge test, crop safety; details: post-emerge, 14 days after application, rating scale 0-100
Outline: as §1

[22] = 250 g ai/ha, rating scale 0-100

COc1c(Cl)cc(F)c(-n2c(=O)cc(C(F)(F)F)n(C)c2=O)c1O [Compound 16-6, 3-(4-chloro-6-fluoro-2-hydroxy-3-methoxyphenyl)-1-methyl-6-trifluoromethyl-2,4(1H, 3H)-pyrimidinedione]
phytotoxicity rating AMARE ([1]; 63 g ai/ha, rating scale 0-100): 70
phytotoxicity rating AMARE [1, 22]: 100
phytotoxicity rating ECHCG ([2]; 63 g ai/ha, rating scale 0-100): 0
phytotoxicity rating ECHCG [2, 22]: 50
phytotoxicity rating SETVI ([3]; 63 g ai/ha, rating scale 0-100): 0
phytotoxicity rating SETVI [3, 22]: 40
phytotoxicity rating IPOHE ([4]; 63 g ai/ha, rating scale 0-100): 50
phytotoxicity rating IPOHE [4, 22]: 90
phytotoxicity rating SORHA ([5]; 63 g ai/ha): 0
phytotoxicity rating SORHA ([5]; 250 g ai/ha): 50
phytotoxicity rating CHEAL ([6]; 63 g ai/ha, rating scale 0-100): 90
phytotoxicity rating CHEAL [6, 22]: 100
phytotoxicity rating DIGSA ([7]; 63 g ai/ha, rating scale 0-100): 0
phytotoxicity rating DIGSA [7, 22]: 70
phytotoxicity rating CASOB ([8]; 63 g ai/ha, rating scale 0-100): 50
phytotoxicity rating CASOB [8, 22]: 70
phytotoxicity rating ABUTH ([9]; 63 g ai/ha, rating scale 0-100): 90
phytotoxicity rating ABUTH [9, 22]: 100

COc1c(Cl)cc(F)c(-n2c(=O)cc(C(F)(F)F)n(C)c2=O)c1NC(=O)CCc1cc(C)ccc1C [2-130]
phytotoxicity rating AMARE ([1]; 63 g ai/ha, scale 0-100): 40
phytotoxicity rating AMARE ([1]; 250 g ai/ha, scale 0-100): 100
phytotoxicity rating ECHCG ([2]; 63 g ai/ha, scale 0-100): 0
phytotoxicity rating ECHCG ([2]; 250 g ai/ha, scale 0-100): 30
phytotoxicity rating SETVI ([3]; 63 g ai/ha, scale 0-100): 50
phytotoxicity rating SETVI ([3]; 250 g ai/ha, scale 0-100): 100
phytotoxicity rating IPOHE ([4]; 63 g ai/ha, scale 0-100): 0
phytotoxicity rating IPOHE ([4]; 250 g ai/ha, scale 0-100): 30
phytotoxicity rating CHEAL ([6]; 63 g ai/ha, scale 0-100): 60
phytotoxicity rating CHEAL ([6]; 250 g ai/ha, scale 0-100): 100
phytotoxicity rating DIGSA ([7]; 63 g ai/ha, scale 0-100): 20
phytotoxicity rating DIGSA ([7]; 250 g ai/ha, scale 0-100): 90
phytotoxicity rating CASOB ([8]; 63 g ai/ha, scale 0-100): 0
phytotoxicity rating CASOB ([8]; 250 g ai/ha, scale 0-100): 40
phytotoxicity rating ABUTH ([9]; 63 g ai/ha, scale 0-100): 100
phytotoxicity rating ABUTH ([9]; 250 g ai/ha, scale 0-100): 100
phytotoxicity rating CORN (crop damage) ([10]; 63 g ai/ha): 0
phytotoxicity rating CORN (crop damage) ([10]; 250 g ai/ha): 5
phytotoxicity rating RICE (crop damage) ([11]; 63 g ai/ha): 0
phytotoxicity rating RICE (crop damage) ([11]; 250 g ai/ha): 15
ECHCG phytotoxicity rating ([12]; 63 g ai/ha): 50
ECHCG phytotoxicity rating ([12]; 250 g ai/ha): 60
SETVI phytotoxicity rating ([13]; 63 g ai/ha): 60
SETVI phytotoxicity rating ([13]; 250 g ai/ha): 70
IPOHE phytotoxicity rating ([14]; 63 g ai/ha): 100
IPOHE phytotoxicity rating ([14]; 250 g ai/ha): 100
CHEAL phytotoxicity rating ([15]; 63 g ai/ha): 100
CHEAL phytotoxicity rating ([15]; 250 g ai/ha): 100
DIGSA phytotoxicity rating ([16]; 63 g ai/ha): 30
DIGSA phytotoxicity rating ([16]; 250 g ai/ha): 50
AMARE phytotoxicity rating ([17]; 63 g ai/ha): 100
AMARE phytotoxicity rating ([17]; 250 g ai/ha): 100
CASOB phytotoxicity rating ([18]; 63 g ai/ha): 80
CASOB phytotoxicity rating ([18]; 250 g ai/ha): 70
ABUTH phytotoxicity rating ([19]; 63 g ai/ha): 100
ABUTH phytotoxicity rating ([19]; 250 g ai/ha): 100
CORN phytotoxicity rating (crop damage) ([20]; 63 g ai/ha): 10
CORN phytotoxicity rating (crop damage) ([20]; 250 g ai/ha): 30
RICE phytotoxicity rating (crop damage) ([21]; 63 g ai/ha): 20
RICE phytotoxicity rating (crop damage) ([21]; 250 g ai/ha): 25
